{"source": "ChEMBL document CHEMBL6078711", "about": "“Design, synthesis, and biological evaluation of steroidal indole derivatives as membrane-targeting antibacterial candidates” (Eur J Med Chem, 2025)", "key": {"[1]": {"tested_on": "Staphylococcus aureus", "experiment": "Antibacterial activity against methicillin-resistant Staphylococcus aureus ATCC 33591 assessed as reduction in bacterial growth", "type": "functional"}, "[2]": {"tested_on": "Staphylococcus aureus", "experiment": "Bactericidal activity against methicillin-resistant Staphylococcus aureus ATCC 33591 assessed as reduction in bacterial growth", "type": "functional"}, "[3]": {"tested_on": "A549", "experiment": "Cytotoxicity against human A549 cells upto 20 uM", "type": "functional, cell-based"}, "[4]": {"tested_on": "A549", "experiment": "Cytotoxicity against human A549 cells assessed as cell viability upto 40 uM relative to control", "type": "functional", "conditions": "up to 40 µM"}, "[5]": {"tested_on": "Staphylococcus aureus", "experiment": "Antibacterial activity against Staphylococcus aureus CGMCC1.8721 assessed as reduction in bacterial growth at 4 to 8 times MIC measured at 0.5 hrs by time kill assay", "type": "functional", "design": "scale not given: the % may be the effect or the level left"}, "[6]": {"tested_on": "Staphylococcus aureus", "experiment": "Antibacterial activity against methicillin-resistant Staphylococcus aureus ATCC 43300 assessed as reduction in bacterial growth in presence of Ca2+", "type": "functional"}, "[7]": {"tested_on": "Staphylococcus aureus", "experiment": "Antibacterial activity against methicillin-resistant Staphylococcus aureus CGMCC 1.12409 assessed as reduction in bacterial growth in presence of Na+", "type": "functional"}, "[8]": {"tested_on": "Staphylococcus aureus", "experiment": "Antibacterial activity against methicillin-resistant Staphylococcus aureus CGMCC 1.12409 assessed as reduction in bacterial growth in presence of Ca2+", "type": "functional"}, "[9]": {"tested_on": "Staphylococcus aureus", "experiment": "Antibacterial activity against methicillin-resistant Staphylococcus aureus CGMCC 1.12409 assessed as reduction in bacterial growth in presence of Fe3+", "type": "functional"}, "[10]": {"tested_on": "Staphylococcus aureus", "experiment": "Antibacterial activity against methicillin-resistant Staphylococcus aureus ATCC 33591 assessed as reduction in bacterial growth in presence of Na+", "type": "functional"}, "[11]": {"tested_on": "Staphylococcus aureus", "experiment": "Antibacterial activity against methicillin-resistant Staphylococcus aureus ATCC 33591 assessed as reduction in bacterial growth in presence of Ca2+", "type": "functional"}, "[12]": {"tested_on": "Staphylococcus aureus", "experiment": "Antibacterial activity against methicillin-resistant Staphylococcus aureus ATCC 33591 assessed as reduction in bacterial growth in presence of Mg2+", "type": "functional"}, "[13]": {"tested_on": "Staphylococcus aureus", "experiment": "Antibacterial activity against methicillin-resistant Staphylococcus aureus ATCC 33591 assessed as reduction in bacterial growth in presence of Fe3+", "type": "functional"}, "[14]": {"tested_on": "Staphylococcus aureus", "experiment": "Antibiofilm activity against Staphylococcus aureus CGMCC1.8721 assessed as biofilm eradication", "type": "functional, organism-based"}, "[15]": {"tested_on": "Staphylococcus aureus", "experiment": "Antibiofilm activity against Staphylococcus aureus CGMCC1.8721 assessed as inhibition of biofilm formation at 8 times MIC", "type": "functional"}, "[16]": {"tested_on": "Cell membrane", "experiment": "Induction of inner membrane permeabilization in Staphylococcus aureus CGMCC1.8721 assessed as increase in fluorescence intensity by PI staining based fluorescence analysis", "type": "subcellular"}, "[17]": {"tested_on": "Staphylococcus aureus", "experiment": "Antibacterial activity against Staphylococcus aureus CGMCC1.8721 assessed as reduction in metabolic activity at 4 times MIC by Alamar Blue assay", "type": "functional", "design": "scale not given: the % may be the effect or the level left"}, "[18]": {"tested_on": "Staphylococcus aureus", "experiment": "Antibacterial activity against Staphylococcus aureus CGMCC1.8721 assessed as reduction in bacterial growth in presence of peptidoglycan", "type": "functional, organism-based"}, "[19]": {"tested_on": "Cell membrane", "experiment": "Disruption of cell membrane integrity in Staphylococcus aureus CGMCC1.8721 assessed as appearance of wrinkled cell surface at 1 to 4 times MIC by scanning electron microscopic analysis", "type": "subcellular"}, "[20]": {"tested_on": "Cell membrane", "experiment": "Disruption of cell membrane integrity in Staphylococcus aureus CGMCC1.8721 assessed as appearance of uneven cell surface at 1 to 4 times MIC by scanning electron microscopic analysis", "type": "subcellular"}, "[21]": {"tested_on": "Staphylococcus aureus", "experiment": "Antibacterial activity against Methicillin-resistant Staphylococcus aureus CGMCC1.8721 infected in mouse skin infection model assessed as reduction in bacterial load at 5 mg/kg, sc", "type": "functional", "design": "scale not given: the % may be the effect or the level left"}, "[22]": {"tested_on": "Staphylococcus aureus", "experiment": "Antibacterial activity against Methicillin-resistant Staphylococcus aureus CGMCC1.8721 infected in mouse skin infection model assessed as reduction in bacterial load at 10 mg/kg, sc", "type": "functional", "design": "scale not given: the % may be the effect or the level left"}}, "note": "Active and inactive are the calls of the source. No cut-off for these calls is given here."}
{"smiles": "CCNCc1ccc2[nH]cc(C[C@@H](C)[C@H]3CC[C@H]4[C@@H]5CC[C@@H]6C[C@H](O)CC[C@]6(C)[C@H]5CC[C@]34C)c2c1", "values": [{"measurement": "MIC", "setting": "[1]", "result": 2, "unit": "µg/mL"}, {"measurement": "MBC", "setting": "[2]", "result": 4, "unit": "µg/mL"}, {"measurement": "Activity", "setting": "[3]", "result": "Active"}, {"measurement": "Activity", "setting": "[4]", "result": ">70", "unit": "%"}, {"measurement": "Activity", "setting": "[5]", "result": 100, "unit": "%"}, {"measurement": "MIC", "setting": "[6]", "result": 1, "unit": "µg/mL"}, {"measurement": "MIC", "setting": "[7]", "result": 2, "unit": "µg/mL"}, {"measurement": "MIC", "setting": "[8]", "result": 2, "unit": "µg/mL"}, {"measurement": "MIC", "setting": "[9]", "result": 2, "unit": "µg/mL"}, {"measurement": "MIC", "setting": "[10]", "result": 2, "unit": "µg/mL"}, {"measurement": "MIC", "setting": "[11]", "result": 2, "unit": "µg/mL"}, {"measurement": "MIC", "setting": "[12]", "result": 2, "unit": "µg/mL"}, {"measurement": "MIC", "setting": "[13]", "result": 2, "unit": "µg/mL"}, {"measurement": "Activity", "setting": "[14]", "result": "Active"}, {"measurement": "inhibition (INH)", "setting": "[15]", "result": 92.4, "unit": "%"}, {"measurement": "Activity", "setting": "[16]", "result": "Dose-dependent-effect"}, {"measurement": "Activity", "setting": "[17]", "result": 75, "unit": "%"}, {"measurement": "Activity", "setting": "[18]", "result": "inactive"}, {"measurement": "Activity", "setting": "[19]", "result": "Active"}, {"measurement": "Activity", "setting": "[20]", "result": "Active"}, {"measurement": "Activity", "setting": "[21]", "result": 67, "unit": "%"}, {"measurement": "Activity", "setting": "[22]", "result": 76, "unit": "%"}]}
